Experimental data reported in ChEMBL document CHEMBL5465560, “Selectivity Literature for EUbOPEN Chemogenomic Library” (2024).

Experiments:
[1] = tested on: Tyrosine-protein kinase ABL1 (Homo sapiens), P00519 [Y253F]; conditions: at 10 µM
[2] = target: T1, Dual specificity mitogen-activated protein kinase kinase 3 (Homo sapiens) (UniProt P46734); conditions: at 10 µM
T1 sequence (whole entry): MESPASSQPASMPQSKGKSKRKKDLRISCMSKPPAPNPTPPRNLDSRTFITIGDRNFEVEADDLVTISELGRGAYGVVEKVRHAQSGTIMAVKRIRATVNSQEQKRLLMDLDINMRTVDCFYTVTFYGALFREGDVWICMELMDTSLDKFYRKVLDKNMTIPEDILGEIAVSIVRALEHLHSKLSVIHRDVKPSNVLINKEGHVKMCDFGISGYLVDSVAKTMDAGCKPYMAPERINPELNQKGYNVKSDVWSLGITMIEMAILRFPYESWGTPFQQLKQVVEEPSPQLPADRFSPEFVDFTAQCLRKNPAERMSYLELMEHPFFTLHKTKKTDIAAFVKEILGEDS

[3] = target: Cyclin-dependent kinase 14 (Homo sapiens) (UniProt O94921); assay: Selectivity interaction (KinomeScan (DiscoverX)) EUB0001049a CDK14; conditions: at 1 µM
[4] = target: Cyclin-dependent kinase 2 (Homo sapiens, UniProt P24941); assay: Selectivity interaction (KinomeScan (DiscoverX)) EUB0001049a CDK2; conditions: at 1 µM
[5] = target: hERG (KCNH2) (Homo sapiens, UniProt Q12809); assay: Selectivity interaction (Panel of kinases, GPCRs, ion channels and transporters (enzymatic assay)) EUB0000266bCl KCNH2
hERG (KCNH2), sequence (Q12809 whole entry): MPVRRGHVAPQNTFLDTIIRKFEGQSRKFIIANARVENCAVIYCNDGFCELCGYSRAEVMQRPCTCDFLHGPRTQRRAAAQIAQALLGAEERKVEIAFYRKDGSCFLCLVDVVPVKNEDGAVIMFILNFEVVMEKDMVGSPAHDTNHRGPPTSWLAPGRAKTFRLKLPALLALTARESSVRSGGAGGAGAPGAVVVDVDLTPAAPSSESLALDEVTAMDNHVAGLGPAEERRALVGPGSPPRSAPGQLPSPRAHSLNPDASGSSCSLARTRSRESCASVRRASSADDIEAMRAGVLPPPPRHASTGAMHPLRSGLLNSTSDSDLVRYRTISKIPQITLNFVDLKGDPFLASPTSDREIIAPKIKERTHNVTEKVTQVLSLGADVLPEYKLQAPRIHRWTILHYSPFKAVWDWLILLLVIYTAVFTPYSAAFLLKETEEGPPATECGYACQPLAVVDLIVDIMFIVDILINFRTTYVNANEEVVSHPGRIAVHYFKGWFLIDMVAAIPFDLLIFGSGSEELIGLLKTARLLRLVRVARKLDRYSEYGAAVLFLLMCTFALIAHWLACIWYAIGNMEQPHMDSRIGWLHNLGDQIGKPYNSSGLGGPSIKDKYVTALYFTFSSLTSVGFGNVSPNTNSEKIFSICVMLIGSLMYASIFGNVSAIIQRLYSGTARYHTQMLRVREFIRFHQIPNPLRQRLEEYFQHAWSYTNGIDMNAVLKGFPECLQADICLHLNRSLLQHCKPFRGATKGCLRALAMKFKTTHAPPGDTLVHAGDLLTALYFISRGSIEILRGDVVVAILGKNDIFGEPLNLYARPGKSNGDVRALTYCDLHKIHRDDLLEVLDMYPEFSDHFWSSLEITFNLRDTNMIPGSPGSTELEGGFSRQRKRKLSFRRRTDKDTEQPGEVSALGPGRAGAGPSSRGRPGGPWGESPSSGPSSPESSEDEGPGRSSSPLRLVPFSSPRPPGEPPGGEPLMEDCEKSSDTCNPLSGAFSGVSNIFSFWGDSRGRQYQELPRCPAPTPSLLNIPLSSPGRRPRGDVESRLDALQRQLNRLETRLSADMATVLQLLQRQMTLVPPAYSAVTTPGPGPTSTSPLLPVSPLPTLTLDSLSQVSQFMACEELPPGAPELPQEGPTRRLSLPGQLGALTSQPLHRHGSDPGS

[6] = target: T2, Dual specificity mitogen-activated protein kinase kinase 4 (Homo sapiens) (UniProt P45985); assay: Selectivity interaction (ActivX KiNativ screen (kinase selectivity in THP-1 cell lysates)) EUB0000639a MAP2K4; format: subcellular; conditions: lysate, at 0.2 µM
T2 sequence (whole entry): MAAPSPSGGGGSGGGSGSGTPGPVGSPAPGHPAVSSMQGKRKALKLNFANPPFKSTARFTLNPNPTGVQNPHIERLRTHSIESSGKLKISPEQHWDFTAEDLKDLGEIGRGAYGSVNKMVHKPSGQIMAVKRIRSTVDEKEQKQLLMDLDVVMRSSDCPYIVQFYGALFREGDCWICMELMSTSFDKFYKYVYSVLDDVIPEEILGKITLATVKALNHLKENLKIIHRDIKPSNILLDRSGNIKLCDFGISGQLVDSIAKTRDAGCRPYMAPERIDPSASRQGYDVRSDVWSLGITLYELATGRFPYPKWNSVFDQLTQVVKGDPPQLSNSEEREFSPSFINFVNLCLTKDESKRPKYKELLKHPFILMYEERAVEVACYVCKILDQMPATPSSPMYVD

[7] = target: Serine/threonine-protein kinase PAK 6 (Homo sapiens) (UniProt Q9NQU5); assay: Selectivity interaction (Kinase panel (Z-LYTE Assay)) EUB0001632a PAK6; conditions: at 10 µM
[8] = target: T3, Dual specificity protein kinase TTK (Homo sapiens) (UniProt P33981); assay: Selectivity interaction (KinomeScan (DiscoverX)) EUB0000695a TTK; conditions: at 100 nM
T3 sequence (whole entry): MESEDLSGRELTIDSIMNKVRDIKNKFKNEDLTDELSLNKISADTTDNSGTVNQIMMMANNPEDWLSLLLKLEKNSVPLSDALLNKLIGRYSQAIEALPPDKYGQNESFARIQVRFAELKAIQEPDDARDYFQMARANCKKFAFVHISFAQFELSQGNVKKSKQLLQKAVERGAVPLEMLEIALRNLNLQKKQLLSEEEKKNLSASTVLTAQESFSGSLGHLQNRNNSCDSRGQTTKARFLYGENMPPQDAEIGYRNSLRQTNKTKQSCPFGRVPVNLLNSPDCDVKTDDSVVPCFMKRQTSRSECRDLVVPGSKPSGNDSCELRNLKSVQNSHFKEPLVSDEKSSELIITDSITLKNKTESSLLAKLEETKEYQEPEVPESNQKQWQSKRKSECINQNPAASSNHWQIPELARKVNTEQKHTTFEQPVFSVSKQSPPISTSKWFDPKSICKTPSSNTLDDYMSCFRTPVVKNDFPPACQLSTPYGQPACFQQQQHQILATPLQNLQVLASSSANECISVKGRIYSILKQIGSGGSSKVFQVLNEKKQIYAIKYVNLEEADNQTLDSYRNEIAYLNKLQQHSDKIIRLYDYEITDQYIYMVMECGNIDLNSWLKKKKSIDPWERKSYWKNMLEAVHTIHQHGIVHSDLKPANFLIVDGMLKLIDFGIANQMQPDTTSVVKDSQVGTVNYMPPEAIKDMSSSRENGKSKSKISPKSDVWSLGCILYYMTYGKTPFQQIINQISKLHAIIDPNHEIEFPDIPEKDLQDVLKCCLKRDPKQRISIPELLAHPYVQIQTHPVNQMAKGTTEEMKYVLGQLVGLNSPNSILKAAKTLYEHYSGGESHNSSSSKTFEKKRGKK

[9] = tested on: Epidermal growth factor receptor (Homo sapiens), P00533 [UNDEFINED MUTATION]; assay: Selectivity interaction (KinomeScan (DiscoverX)) EUB0000229b EGFR; conditions: at 1 µM
Epidermal growth factor receptor (Homo sapiens), P00533 [UNDEFINED MUTATION], sequence (P00533 whole entry, looked up, change not shown): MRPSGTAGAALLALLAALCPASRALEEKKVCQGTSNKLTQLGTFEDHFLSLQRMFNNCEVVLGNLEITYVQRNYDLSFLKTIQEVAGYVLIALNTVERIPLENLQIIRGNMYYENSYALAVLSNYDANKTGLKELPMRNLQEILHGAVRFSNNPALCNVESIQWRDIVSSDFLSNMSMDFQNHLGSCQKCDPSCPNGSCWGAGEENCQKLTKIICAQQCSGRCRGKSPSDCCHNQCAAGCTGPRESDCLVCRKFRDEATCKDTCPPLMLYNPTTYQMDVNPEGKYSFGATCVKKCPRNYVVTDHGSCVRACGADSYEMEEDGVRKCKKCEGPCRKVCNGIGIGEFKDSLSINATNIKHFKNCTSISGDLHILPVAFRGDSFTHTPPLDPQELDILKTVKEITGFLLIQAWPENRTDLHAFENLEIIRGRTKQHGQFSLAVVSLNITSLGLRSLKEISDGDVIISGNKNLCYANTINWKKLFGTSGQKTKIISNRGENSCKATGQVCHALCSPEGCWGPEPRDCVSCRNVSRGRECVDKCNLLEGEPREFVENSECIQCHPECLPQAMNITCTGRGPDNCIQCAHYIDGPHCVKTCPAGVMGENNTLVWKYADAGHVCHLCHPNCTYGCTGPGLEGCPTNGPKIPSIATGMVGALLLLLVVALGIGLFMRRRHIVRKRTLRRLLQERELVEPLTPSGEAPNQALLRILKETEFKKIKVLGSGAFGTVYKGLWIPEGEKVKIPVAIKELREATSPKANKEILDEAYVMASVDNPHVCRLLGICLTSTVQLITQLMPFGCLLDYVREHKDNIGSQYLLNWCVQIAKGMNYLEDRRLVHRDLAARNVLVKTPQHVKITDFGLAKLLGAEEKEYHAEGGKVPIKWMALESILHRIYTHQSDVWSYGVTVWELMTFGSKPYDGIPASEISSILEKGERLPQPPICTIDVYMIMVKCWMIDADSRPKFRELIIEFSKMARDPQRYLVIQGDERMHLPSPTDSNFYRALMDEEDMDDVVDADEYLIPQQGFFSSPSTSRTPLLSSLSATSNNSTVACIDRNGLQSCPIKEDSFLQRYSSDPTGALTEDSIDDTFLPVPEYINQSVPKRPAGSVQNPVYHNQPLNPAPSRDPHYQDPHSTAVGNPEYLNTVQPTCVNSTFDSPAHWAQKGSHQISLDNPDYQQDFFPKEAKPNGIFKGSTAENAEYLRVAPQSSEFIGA

[10] = target: Calcium/calmodulin-dependent protein kinase type 1G (Homo sapiens) (UniProt Q96NX5); assay: Selectivity interaction (KinomeScan (DiscoverX)) EUB0001079a CAMK1G; conditions: at 1 µM
[11] = target: BMP-2-inducible protein kinase (Homo sapiens) (UniProt Q9NSY1); assay: Selectivity interaction (KinomeScan (DiscoverX)) EUB0000045b BMP2K
BMP-2-inducible protein kinase (Homo sapiens), sequence (Q9NSY1 whole entry, looked up): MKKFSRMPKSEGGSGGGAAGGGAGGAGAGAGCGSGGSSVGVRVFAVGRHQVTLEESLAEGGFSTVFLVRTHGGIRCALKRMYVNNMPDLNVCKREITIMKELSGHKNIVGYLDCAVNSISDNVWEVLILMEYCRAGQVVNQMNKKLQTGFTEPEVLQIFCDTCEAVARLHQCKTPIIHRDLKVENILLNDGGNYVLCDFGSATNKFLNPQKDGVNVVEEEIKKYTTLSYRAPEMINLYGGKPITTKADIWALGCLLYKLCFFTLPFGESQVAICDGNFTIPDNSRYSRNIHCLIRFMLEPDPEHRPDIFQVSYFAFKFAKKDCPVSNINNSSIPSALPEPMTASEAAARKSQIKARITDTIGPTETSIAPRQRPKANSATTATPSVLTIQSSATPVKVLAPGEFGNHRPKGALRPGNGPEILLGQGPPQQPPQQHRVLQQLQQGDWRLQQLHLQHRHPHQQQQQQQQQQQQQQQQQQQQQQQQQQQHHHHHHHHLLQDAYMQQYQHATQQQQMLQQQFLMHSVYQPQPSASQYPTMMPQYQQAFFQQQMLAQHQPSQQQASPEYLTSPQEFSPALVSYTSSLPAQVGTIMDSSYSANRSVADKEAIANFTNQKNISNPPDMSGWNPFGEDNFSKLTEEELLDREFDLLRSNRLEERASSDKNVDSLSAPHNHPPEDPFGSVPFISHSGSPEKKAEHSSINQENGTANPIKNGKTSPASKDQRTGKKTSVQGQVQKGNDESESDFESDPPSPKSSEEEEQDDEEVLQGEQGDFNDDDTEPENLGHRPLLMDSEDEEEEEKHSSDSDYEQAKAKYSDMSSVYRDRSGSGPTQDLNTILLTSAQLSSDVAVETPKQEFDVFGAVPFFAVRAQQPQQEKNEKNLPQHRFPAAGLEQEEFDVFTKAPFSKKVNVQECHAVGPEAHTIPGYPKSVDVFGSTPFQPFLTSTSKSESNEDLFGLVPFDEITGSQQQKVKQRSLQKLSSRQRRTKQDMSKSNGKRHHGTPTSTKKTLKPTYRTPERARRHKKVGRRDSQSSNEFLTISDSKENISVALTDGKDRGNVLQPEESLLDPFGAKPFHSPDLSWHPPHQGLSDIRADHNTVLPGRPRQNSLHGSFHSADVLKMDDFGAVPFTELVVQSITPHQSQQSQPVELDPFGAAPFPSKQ

[12] = target: Serine/threonine-protein kinase Nek4 (Homo sapiens) (UniProt P51957); assay: Selectivity interaction (KinomeScan (DiscoverX)) EUB0000655a NEK4; conditions: at 10 µM
[13] = target: Mitogen-activated protein kinase 14 (Homo sapiens, UniProt Q16539); assay: Selectivity interaction (ActivX KiNativ screen (ex vivo kinase selectivity in human PBMCs)) EUB0001619a MAPK14; format: cell-based; conditions: PBMC, at 1 µM
Mitogen-activated protein kinase 14, sequence (Q16539 whole entry): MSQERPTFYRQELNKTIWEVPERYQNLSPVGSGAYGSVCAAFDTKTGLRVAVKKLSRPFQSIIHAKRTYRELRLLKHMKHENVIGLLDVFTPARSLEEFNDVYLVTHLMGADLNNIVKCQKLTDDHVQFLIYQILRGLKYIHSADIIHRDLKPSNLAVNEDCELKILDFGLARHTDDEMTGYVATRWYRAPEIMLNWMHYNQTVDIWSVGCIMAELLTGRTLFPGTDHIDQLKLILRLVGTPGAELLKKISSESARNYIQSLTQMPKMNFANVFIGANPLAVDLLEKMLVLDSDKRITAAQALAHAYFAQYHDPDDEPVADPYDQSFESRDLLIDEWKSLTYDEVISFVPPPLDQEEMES

[14] = target: Misshapen-like kinase 1 (Homo sapiens, UniProt Q8N4C8); assay: Selectivity interaction (SelectScreen profiling (Invitrogen)) EUB0000607a MINK1; conditions: at 2 µM
[15] = target: Macrophage colony-stimulating factor 1 receptor (Homo sapiens) (UniProt P07333); assay: Selectivity interaction (KinomeScan (DiscoverX)) EUB0000607a CSF1R; conditions: at 10 µM
Macrophage colony-stimulating factor 1 receptor (Homo sapiens), sequence (P07333 whole entry): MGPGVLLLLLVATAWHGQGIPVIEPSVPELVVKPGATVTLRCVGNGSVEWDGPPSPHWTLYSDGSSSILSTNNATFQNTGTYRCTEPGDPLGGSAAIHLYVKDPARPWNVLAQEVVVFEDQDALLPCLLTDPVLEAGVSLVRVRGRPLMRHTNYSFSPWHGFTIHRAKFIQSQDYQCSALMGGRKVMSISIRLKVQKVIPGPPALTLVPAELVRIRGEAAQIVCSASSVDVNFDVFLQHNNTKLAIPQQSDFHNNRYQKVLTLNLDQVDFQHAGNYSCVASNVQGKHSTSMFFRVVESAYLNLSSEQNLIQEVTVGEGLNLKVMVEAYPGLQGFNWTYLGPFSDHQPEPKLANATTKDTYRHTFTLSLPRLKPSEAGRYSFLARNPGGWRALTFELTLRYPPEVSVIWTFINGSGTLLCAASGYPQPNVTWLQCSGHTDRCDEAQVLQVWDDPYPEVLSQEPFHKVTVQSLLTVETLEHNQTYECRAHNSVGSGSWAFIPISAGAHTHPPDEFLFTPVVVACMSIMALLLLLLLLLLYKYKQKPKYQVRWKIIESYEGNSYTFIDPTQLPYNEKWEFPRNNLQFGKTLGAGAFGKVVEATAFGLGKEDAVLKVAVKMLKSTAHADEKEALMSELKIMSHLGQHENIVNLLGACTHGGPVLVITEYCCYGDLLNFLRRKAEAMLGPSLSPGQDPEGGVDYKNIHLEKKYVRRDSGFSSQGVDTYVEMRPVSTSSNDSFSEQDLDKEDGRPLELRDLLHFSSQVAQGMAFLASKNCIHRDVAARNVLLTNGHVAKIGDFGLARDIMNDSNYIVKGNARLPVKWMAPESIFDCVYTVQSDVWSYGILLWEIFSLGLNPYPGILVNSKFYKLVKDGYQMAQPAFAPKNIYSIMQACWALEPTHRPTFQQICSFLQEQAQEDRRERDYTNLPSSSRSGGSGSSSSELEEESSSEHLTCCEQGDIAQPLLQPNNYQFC

Cc1cc([C@@H](C)Nc2ccccc2C(=O)O)c2nc(N3CCOCC3)cc(=O)n2c1 [AZD-6482]
% of control [1]: 100%
% of control [2]: 100%

COc1cc(Nc2nc(C)cc(-c3cnn4nc(OC)ccc34)n2)cc(C(F)(F)F)c1
% of control [3]: 87%
% of control [4]: 91%

CCn1c(-c2nc3cc(C(=O)N4CCCC(N)C4)ccc3n2C)cc2ccccc21 (stereo unspecified)
XC50 [5]: 6.31 µM

CC[C@@H]1[C@H](F)C(=O)N[C@@H]1COc1nccc2cc(C(N)=O)c(OC)cc12 [ZIMLOVISERTIB]
% of inhibition [6]: 15.8%

Cn1cc(-n2cnc3c(NCc4nc5cc(Cl)c(Cl)cc5[nH]4)nc(N4CCOCC4)nc32)cn1
% of control [7]: -5.74%

Cc1cc(F)c(C(=O)Nc2cccc(-c3nncn3C(C)C)n2)cc1-n1cnc(C2CC2)c1
% of control [8]: 87%

COc1cc(N(C)c2ccnc3ccc(C(F)(F)F)cc23)cc(OC)c1OC
% binding [9]: 92%

Nc1cnc(N2CCc3cc(S(=O)(=O)Nc4c(F)cc(Cl)cc4F)cc(N4CCCC4=O)c32)nc1 [TP-020n]
% of control [10]: 100%

C=CC(=O)Nc1cc(-n2c(=O)ccc3cnc4ccc(-c5ccc(NS(C)(=O)=O)cc5)cc4c32)ccc1C
% of control ([11]; at 1 µM): 76%
% of control ([11]; at 10 µM): 39%

CN(C)CCOc1ccc(-c2nc(-c3ccncc3)c(-c3ccc4c(c3)CC/C4=N\O)[nH]2)cc1
% of control [12]: 100%

N#Cc1cccc(-c2c[nH]c3ncnc(N4CCOCC4)c23)c1
% of inhibition [13]: -15%

CNC(=O)Nc1ccc(-c2nc(N3CC4CCC(C3)O4)c3cnn(C4CCC5(CC4)OCCO5)c3n2)cc1
% of inhibition [14]: 14%
% of control [15]: 100%
